{
  "source": "patent US8895753B2",
  "about": "“S1P receptor modulating agent” (Meiji Seika Pharma Co., Ltd., priority 2011, dated 2014)",
  "key": {"Human S1P4 receptor": {"target": "T1, Human S1P4 receptor (Homo sapiens, UniProt O95977)", "T1 sequence (O95977 1-384)": "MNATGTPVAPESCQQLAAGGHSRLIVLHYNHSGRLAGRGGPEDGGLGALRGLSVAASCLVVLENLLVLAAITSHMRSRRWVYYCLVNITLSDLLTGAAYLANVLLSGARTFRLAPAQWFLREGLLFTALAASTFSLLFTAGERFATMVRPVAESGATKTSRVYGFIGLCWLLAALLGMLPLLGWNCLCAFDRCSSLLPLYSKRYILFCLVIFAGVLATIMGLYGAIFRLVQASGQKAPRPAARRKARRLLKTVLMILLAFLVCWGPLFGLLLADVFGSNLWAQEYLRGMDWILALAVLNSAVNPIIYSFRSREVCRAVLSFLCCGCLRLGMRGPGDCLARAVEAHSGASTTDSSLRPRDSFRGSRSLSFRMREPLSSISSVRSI", "assay": "Agonist activity at an S1P4 receptor (calcium influx)", "format": "cell-based", "settings": "at 1000 nM; read-out: activity at S1P4 receptor (elevation of intracellular calcium)", "protocol": "By using Human S1P4 receptor expressing cells (Multispan Inc. CG1052-1), the elevation of intracellular calcium concentration via agonist activity by the addition of 1000 nM was measured by Fret method (fluorescence resonance energy transfer)."}, "Human S1P5 receptor": {"target": "T2, Human S1P5 receptor (Homo sapiens, UniProt Q9H228)", "T2 construct": "host or cells: U2OS (EDG8-bla/U2OS)", "T2 sequence (Q9H228 whole entry)": "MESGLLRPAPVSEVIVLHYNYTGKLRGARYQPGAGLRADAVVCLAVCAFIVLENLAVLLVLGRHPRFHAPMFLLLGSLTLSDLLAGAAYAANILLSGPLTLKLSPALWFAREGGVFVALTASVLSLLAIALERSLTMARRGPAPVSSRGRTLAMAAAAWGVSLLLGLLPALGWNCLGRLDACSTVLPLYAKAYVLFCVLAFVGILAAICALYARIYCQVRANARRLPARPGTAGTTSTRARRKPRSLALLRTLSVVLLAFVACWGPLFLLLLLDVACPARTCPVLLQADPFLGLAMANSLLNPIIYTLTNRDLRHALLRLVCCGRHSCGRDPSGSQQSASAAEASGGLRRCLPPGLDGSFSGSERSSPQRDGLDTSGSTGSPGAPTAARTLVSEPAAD", "assay": "Agonist activity at an S1P5 receptor (reporter assay, EDG8-bla/U2OS cells)", "format": "cell-based", "protocol": "Human S1P5 receptor gene recombinant EDG8-bla/U2OS cells (Life Technologies Japan Ltd.) were plated in a 384-well clear bottom black plate at 10000 cells/32 μL/well, and the plate was incubated at 37° C. in a 5% CO2 incubator for 48 hours. A culture containing each test compound prepared as a 5× concentrate was added at 8 μL/well, and the plate was incubated at 37° C. in a 5% CO2 incubator for 5 hours. The substrate (LiveBLAzer™-FRET B/G substrate (CCF4-AM), Life Technologies Japan Ltd.) prepared as a 6× concentrate was added at 8 μL to each well, and the plate was incubated at room temperature for 2 hours in the dark. The fluorescence intensity of each well was measured using a bottom-reading fluorescence microplate reader at one excitation wavelength and 2 wavelengths for fluorescence emission (Ex409 nm, Em460 nm, Em530 nm). The intensity ratio of fluorescence at 460 nm/530 nm was calculated for each well. The maximum response ratio confirmed from the dose response of S1P was expressed as 100%. The concentration of test compound required to stimulate 50% of its maximal activation was determined as EC50 (nM)."}, "blood lymphocytic cells": {"tested_on": "blood lymphocytic cells", "assay": "Suppressive effect on circulating lymphocytic cells in a rat", "format": "in vivo", "settings": "6 hours after administration", "protocol": "Under anesthesia, a femoral artery was cannulated in a 7-11-week old male SD rat (Charles River Laboratories Japan Inc.) that had been reared for more than one week. A vehicle (in case of intravascular administration, 10% PEG300-0.01 M KOH saline was used, and in case of oral administration, 0.5% hydroxymethyl cellulose solution was used) or a test compound was administered intravascularly or by gavage administration. Right before the administration or 2, 4, 6 hours after the administration, the number of blood lymphocytic cells was counted by using an automated hematology analyzer XT-1800i or XT-2000i (Sysmex). The count of lymphocytic cells right before the administration was regarded as 100%, and the dose of the test compound that reduced blood lymphocytic cells by 50% of vehicle-treated group at the point of 6 hours after the administration was calculated as ED50 (mg/kg body weight)."}, "heart rate": {"tested_on": "heart rate", "assay": "Evaluation of the heart rate in a rat (under consciousness)", "format": "in vivo", "settings": "conscious rat, vascularly administered at 6 mg/kg body weight", "protocol": "Under anesthesia, femoral artery was cannulated in a 7-11-week old male SD rat (Charles River Laboratories Japan Inc.) that had been reared for more than one week. Arterial cannula was connected to a pressure transducer, and under consciousness changes in the heart rate were monitored with a polygraph (Nihon Kohden) up to 4 hours after the vascular administration of the vehicle (10% PEG300-0.01M KOH saline) or the test compounds. The dose that lowered the heart rate by 20% was computed as TD20 (mg/kg body weight)."}, "Human S1P1 receptor [1]": {"target": "T3, Human S1P1 receptor (Homo sapiens, UniProt P21453)", "T3 sequence (P21453 whole entry)": "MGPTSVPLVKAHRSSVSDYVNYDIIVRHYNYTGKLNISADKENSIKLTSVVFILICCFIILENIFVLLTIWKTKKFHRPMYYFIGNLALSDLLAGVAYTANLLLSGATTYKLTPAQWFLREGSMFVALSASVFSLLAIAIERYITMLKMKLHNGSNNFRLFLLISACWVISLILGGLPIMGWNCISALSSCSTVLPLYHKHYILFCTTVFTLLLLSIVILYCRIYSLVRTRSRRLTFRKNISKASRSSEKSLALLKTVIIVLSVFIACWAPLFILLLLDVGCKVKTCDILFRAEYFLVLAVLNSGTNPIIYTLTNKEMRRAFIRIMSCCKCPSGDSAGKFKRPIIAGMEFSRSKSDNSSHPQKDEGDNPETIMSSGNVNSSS", "assay": "Agonist activity at an S1P1 receptor ([35S]-GTPγS exchange reaction, membrane fractions)", "format": "biochemical", "settings": "read-out: EC50, agonist activity at S1P1 receptor (GTP exchange reaction)", "protocol": "(§1) By using membrane fractions prepared from a human S1P1 receptor expressing cells (Multispan Ltd.), the agonist activity of each test compound was measured by [^35S]-GTPγS exchange reaction in accordance with a standard procedure (Methods in Molecular Biology, Vol. 552, p 143-151 (2009)), and EC50 (nM) of each test compound was computed."}, "Human S1P3 receptor": {"target": "Human S1P3 receptor (Homo sapiens, UniProt Q99500)", "sequence (Q99500 whole entry)": "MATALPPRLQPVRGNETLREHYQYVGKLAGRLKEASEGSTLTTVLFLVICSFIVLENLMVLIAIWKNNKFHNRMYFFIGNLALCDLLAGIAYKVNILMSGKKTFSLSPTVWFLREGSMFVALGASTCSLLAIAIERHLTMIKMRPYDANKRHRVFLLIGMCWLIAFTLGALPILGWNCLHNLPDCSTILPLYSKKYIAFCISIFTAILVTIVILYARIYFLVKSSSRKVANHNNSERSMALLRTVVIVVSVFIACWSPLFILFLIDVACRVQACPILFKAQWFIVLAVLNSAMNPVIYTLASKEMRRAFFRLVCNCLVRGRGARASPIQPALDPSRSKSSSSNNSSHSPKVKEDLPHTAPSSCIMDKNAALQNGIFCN", "assay": "Agonist activity at an S1P3 receptor ([35S]-GTPγS exchange reaction at 1000 nM)", "format": "biochemical", "settings": "read-out: percent of the maximal agonist activity at S1P3 receptor", "protocol": "as §1\nBy using membrane fractions prepared from Human S1P3 receptor expressing cells (Multispan Inc.), the agonist activity of the compound in the present invention was measured by a [^35S]-GTPγS exchange reaction at 1000 nM by the similar method of the Experimental Example 2."}, "Human S1P1 receptor [2]": {"target": "T3, Human S1P1 receptor", "assay": "Agonist activity at an S1P1 receptor (reporter assay, EDG1-bla/U2OS cells)", "format": "cell-based", "parameters": "host or cells: U2OS (EDG1-bla/U2OS)", "settings": "S1P maximum response = 100%", "method_in_brief": "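EDG1-bla/U2OS cells grown 48 h, then exposed to test compound for 5 h at 37 °C; CCF4-AM β-lactamase substrate added for 2 h at room temperature in the dark. Read-out is the 460/530 nm emission ratio (Ex409 nm), normalised to maximal S1P response as 100%; EC50 is the concentration giving 50% of maximal activation.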"}},
  "note": "“And” between values parts separate entries of the source, which are not always exact repeats. Equal entries are not always repeated.",
  "data": [
    {"smiles": "CC(C)Oc1ccc(-c2cnc(-c3ccc(CN4CC(C(=O)O)C4)cc3)s2)cc1", "note": "[Example 2, 1-(4-(5-(4-isopropoxyphenyl)thiazol-2-yl)benzyl)azetidine-3-carboxylic acid]", "values": [
      {"measurement": "activation at 1 µM", "setting": "Human S1P4 receptor", "result": "< 20", "unit": "%"},
      {"measurement": "EC50", "setting": "Human S1P5 receptor", "result": "≥ 2000", "unit": "nM"},
      {"measurement": "ED50, dose reducing blood lymphocytic cells by 50%", "setting": "blood lymphocytic cells; gavage administration", "result": 0.13, "unit": "mg/kg body weight"},
      {"measurement": "ED50, dose reducing blood lymphocytic cells by 50%", "setting": "blood lymphocytic cells; vascular administration", "result": 0.1, "unit": "mg/kg body weight"},
      {"measurement": "suppression of the heart rate", "setting": "heart rate", "result": "not recognized"},
      {"measurement": "EC50", "setting": "Human S1P1 receptor [1]", "result": "≤ 50", "unit": "nM"},
      {"measurement": "Emax at 1 µM", "setting": "Human S1P3 receptor", "result": "< 20", "unit": "%"},
      {"measurement": "EC50", "setting": "Human S1P1 receptor [2]", "result": "≤ 10 nM and 3.79 nM"}
    ]},
    {"smiles": "CC(C)Oc1ccc(-c2cnc(-c3ccc(CN4CC(C(=O)O)C4)cc3)s2)cc1Cl", "note": "[Example 3, 1-(4-(5-(3-chloro-4-isopropoxyphenyl)thiazol-2-yl)benzyl)azetidine-3-carboxylic acid]", "values": [
      {"measurement": "activation at 1 µM", "setting": "Human S1P4 receptor", "result": "< 20", "unit": "%"},
      {"measurement": "EC50", "setting": "Human S1P5 receptor", "result": "≥ 2000", "unit": "nM"},
      {"measurement": "ED50, dose reducing blood lymphocytic cells by 50%", "setting": "blood lymphocytic cells; gavage administration", "result": 0.15, "unit": "mg/kg body weight"},
      {"measurement": "ED50, dose reducing blood lymphocytic cells by 50%", "setting": "blood lymphocytic cells; vascular administration", "result": 0.016, "unit": "mg/kg body weight"},
      {"measurement": "suppression of the heart rate", "setting": "heart rate", "result": "not recognized"},
      {"measurement": "EC50", "setting": "Human S1P1 receptor [1]", "result": "≤ 10", "unit": "nM"},
      {"measurement": "Emax at 1 µM", "setting": "Human S1P3 receptor", "result": "20 to 50", "unit": "%"},
      {"measurement": "EC50", "setting": "Human S1P1 receptor [2]", "result": "≤ 1 nM and 0.41 nM"}
    ]}
  ]
}
